In the NIST ThermoML archive (doi:10.1021/je050010l):

Experiments:
[1] = xn = mol fraction of the nth substance listed; settings: 100.8 kPa, Liquid; for viscosity: Capillary tube (Ostwald / Ubbelohde) method
[2] = refractive index (Na D-line) (dimensionless); xn = mol fraction of the nth substance listed; settings: 100.8 kPa, Liquid, Standard Abbe refractometry

CC(C)=O [acetone] + CCO
Settings | mass density, 288.15 K [kg/m3] | mass density, 298.15 K [kg/m3] | mass density, 308.15 K [kg/m3] | refractive index, 288.15 K | refractive index, 298.15 K | refractive index, 308.15 K | viscosity, 288.15 K [mPa·s] | viscosity, 298.15 K [mPa·s] | viscosity, 308.15 K [mPa·s]
[1], x1 = 0.05 | 794.4 | 785.59 | 776.66 | – | – | – | 1.126 | 0.944 | 0.793
[1], x1 = 0.1 | 794.86 | 785.84 | 776.66 | – | – | – | 0.985 | 0.829 | 0.703
[1], x1 = 0.15 | 795.23 | 786 | 776.61 | – | – | – | 0.873 | 0.741 | 0.632
[1], x1 = 0.2 | 795.5 | 786.08 | 776.53 | – | – | – | 0.783 | 0.669 | 0.575
[1], x1 = 0.25 | 795.75 | 786.16 | 776.41 | – | – | – | 0.709 | 0.61 | 0.527
[1], x1 = 0.3 | 795.99 | 786.23 | 776.28 | – | – | – | 0.649 | 0.561 | 0.487
[1], x1 = 0.35 | 796.18 | 786.24 | 776.12 | – | – | – | 0.598 | 0.521 | 0.453
[1], x1 = 0.4 | 796.34 | 786.23 | 775.96 | – | – | – | 0.556 | 0.486 | 0.426
[1], x1 = 0.45 | 796.46 | 786.21 | 775.79 | – | – | – | 0.518 | 0.457 | 0.403
[1], x1 = 0.4999 | 796.57 | 786.19 | 775.63 | – | – | – | 0.488 | 0.431 | 0.383
[1], x1 = 0.55 | 796.68 | 786.17 | 775.47 | – | – | – | 0.461 | 0.409 | 0.364
[1], x1 = 0.6 | 796.77 | 786.13 | 775.3 | – | – | – | 0.438 | 0.39 | 0.349
[1], x1 = 0.65 | 796.84 | 786.07 | 775.13 | – | – | – | 0.418 | 0.373 | 0.335
[1], x1 = 0.7 | 796.86 | 786 | 774.96 | – | – | – | 0.401 | 0.358 | 0.322
[1], x1 = 0.75 | 796.88 | 785.9 | 774.77 | – | – | – | 0.386 | 0.345 | 0.312
[1], x1 = 0.8 | 796.91 | 785.84 | 774.59 | – | – | – | 0.373 | 0.334 | 0.303
[1], x1 = 0.8501 | 796.9 | 785.73 | 774.4 | – | – | – | 0.363 | 0.325 | 0.295
[1], x1 = 0.9 | 796.92 | 785.66 | 774.23 | – | – | – | 0.353 | 0.317 | 0.288
[1], x1 = 0.95 | 796.91 | 785.57 | 774.08 | – | – | – | 0.344 | 0.309 | 0.281
[1], x1 = 1 | 796.87 | 785.47 | 773.91 | – | – | – | 0.334 | 0.302 | 0.274
[2], x1 = 0.05 | – | – | – | 1.36354 | 1.35919 | 1.35486 | – | – | –
[2], x1 = 0.1 | – | – | – | 1.3636 | 1.35915 | 1.3547 | – | – | –
[2], x1 = 0.15 | – | – | – | 1.36366 | 1.35909 | 1.35454 | – | – | –
[2], x1 = 0.2 | – | – | – | 1.36361 | 1.35899 | 1.35435 | – | – | –
[2], x1 = 0.25 | – | – | – | 1.36357 | 1.35887 | 1.35414 | – | – | –
[2], x1 = 0.3 | – | – | – | 1.3635 | 1.35873 | 1.35391 | – | – | –
[2], x1 = 0.35 | – | – | – | 1.36343 | 1.35857 | 1.35369 | – | – | –
[2], x1 = 0.4 | – | – | – | 1.36334 | 1.35842 | 1.35346 | – | – | –
[2], x1 = 0.45 | – | – | – | 1.36324 | 1.35826 | 1.35324 | – | – | –
[2], x1 = 0.4999 | – | – | – | 1.36313 | 1.35809 | 1.353 | – | – | –
[2], x1 = 0.55 | – | – | – | 1.36301 | 1.3579 | 1.35276 | – | – | –
[2], x1 = 0.6 | – | – | – | 1.36289 | 1.35771 | 1.35251 | – | – | –
[2], x1 = 0.65 | – | – | – | 1.36275 | 1.35753 | 1.35228 | – | – | –
[2], x1 = 0.7 | – | – | – | 1.36261 | 1.35734 | 1.35203 | – | – | –
[2], x1 = 0.75 | – | – | – | 1.36246 | 1.35713 | 1.35177 | – | – | –
[2], x1 = 0.8 | – | – | – | 1.3623 | 1.35692 | 1.35152 | – | – | –
[2], x1 = 0.8501 | – | – | – | 1.36214 | 1.35673 | 1.35127 | – | – | –
[2], x1 = 0.9 | – | – | – | 1.36198 | 1.35651 | 1.35102 | – | – | –
[2], x1 = 0.95 | – | – | – | 1.36177 | 1.35629 | 1.3508 | – | – | –
[2], x1 = 1 | – | – | – | 1.36152 | 1.35605 | 1.35057 | – | – | –
